Experimental data: PubChem BioAssay AID1902 (Broad Institute, 2009)
The source made the active and inactive calls.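 The calls were made as follows: active = EC50 no more than a set limit of log units above the highest dose; inactive = the rest.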

What follows are compounds tested against S. pyogenes SKKanGAS, kanamycin survival, BacTiterGlo, 6 h (assay: SKKanGAS survival reduction under kanamycin, dose response, streptokinase promoter inhibitor project, SKKanGAS strain, luminescence, dose confirmation (AID 1902);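 also: lower survival reflects blocked streptokinase promoter driving kanamycin resistance gene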).
`CC(C)c1ccc(NC(=O)c2cc(S(=O)(=O)NCC3COc4ccccc4O3)ccc2F)cc1` (stereo unspecified) was tested, and the EC50 was 5.37 µM.
`COc1ccc(S(=O)(=O)N[C@@H](C)C(=O)OCC(=O)Nc2cc3oc4ccccc4c3cc2OC)cc1` was tested, and the EC50 was 1.42 µM.
In the case of `Cc1cc(N/N=C/c2cccc(Br)c2)nc2ccccc12`, the EC50 is reported as 5.25 µM.
`Cc1cc(/C=C2/C(=N)N3C(=NC2=O)SN=C3S(C)(=O)=O)c(C)n1-c1ccc(F)cc1` was tested, and the EC50 was 4.98 µM.
With `Oc1ccc(Br)cc1/C=N/Nc1nc(N2CCCCC2)nc(N2CCOCC2)n1` the EC50 was 3.81 µM.
`O=C(CC(=O)c1cc(Cl)ccc1O)c1ccccc1` showed an EC50 of 1.01 µM.
In the case of `Cc1cccc(Nc2nc(-c3ccc(F)c(C)c3)cs2)n1`, the EC50 is reported as 8.5 µM.
For `CCOc1ccccc1NC(=O)NCc1ccc2c(c1)OCO2`, the EC50 was > 15 µM (inactive).
In the case of `CN(C)CCCNc1cc(C(C)(C)C)nc2c(-c3ccc(Cl)cc3)cnn12`, the EC50 is reported as 1.94 µM.
In the case of `COc1ccc(C#Cc2ccc3c(=O)c4ccccc4n(C)c3c2)cc1`, the EC50 is reported as 13.9 µM.
With `COc1cc2c3c(c1)/C(=C1/SC(=S)NC1=O)C(=O)N3C(C)(C)C=C2C` the EC50 was 1.1 µM.
`COc1cc([N+](=O)[O-])cc(/C=N/NC(=O)c2cc(-c3ccccc3)nc3ccccc23)c1O` showed an EC50 of 3.2 µM.
`CCCCNC(=O)c1onc(CSc2ccc(C(C)C)cc2)c1C(=O)O` was tested, and the EC50 was 4.13 µM.
In the case of `CC12CCC(CC1)C(C)(C)O2`, the EC50 is reported as > 15 µM (inactive).
For `Cc1cccc(NC(=O)NCc2ccc3c(c2)OCO3)c1`, the EC50 was > 15 µM (inactive).
`O=C(Cn1nc(CNc2ccc(Cl)cc2)[n+]2c1CCCCC2)c1ccc(Br)cc1` was tested, and the EC50 was 10.8 µM.
`COc1cc(NS(=O)(=O)c2ccc(C)cc2)c2ncccc2c1` showed an EC50 of 0.777 µM.
Compound `CN(C)[C@@H]1C(=O)C(C(N)=O)=C(O)[C@@]2(O)C(=O)C3=C(O)c4c(O)ccc(Cl)c4[C@@](C)(O)[C@H]3C[C@@H]12` has an EC50 of 0.065 µM.
Work on `CN1c2ccsc2/C(=N/Nc2ccccc2)CS1(=O)=O` yielded an EC50 of 2.21 µM.
In the case of `CC/C(=N\NC(=S)Nc1cccc(C)c1)c1ccccc1`, the EC50 is reported as 7.96 µM.
Work on `CC1=Nc2ccccc2/C1=C/c1sc(=N)n(-c2nccs2)c1O` yielded an EC50 of 0.452 µM.
Compound `O=[N+]([O-])c1cc(C(F)(F)F)cc([N+](=O)[O-])c1NCCNC(=S)Nc1ccc(Cl)c(Cl)c1` has an EC50 of 1.12 µM.
`Cc1cc(NC(c2ccc(Cl)cc2)c2ccc3cccnc3c2O)no1` (stereo unspecified) showed an EC50 of 0.602 µM.
With `CCn1cc(C(=O)NCc2ccc3c(c2)OCO3)c(=O)c2cc(F)c(N3CCN(C(=O)c4ccco4)CC3)cc21` the EC50 was 9.9 µM.
Compound `Cc1ccccc1N=Nc1ccc(O)c2ncccc12` has an EC50 of 0.069 µM.
Work on `Cc1cc(C)nc(NC(N)=NCCc2c[nH]c3ccccc23)n1` yielded an EC50 of 11.6 µM.
With `Cc1ccc(C(=O)CC(=O)c2ccccc2C)c(O)c1` the EC50 was 5.18 µM.
Compound `Cc1ccc(Cn2nnc3c(=O)[nH]c(C4CCN(S(=O)(=O)c5cc(C)ccc5C)CC4)nc32)cc1` has an EC50 of 6.26 µM.
For `CCOC(=O)C(=NC(C)(C)C)NNc1cc(Cl)ccc1Cl`, the EC50 was 2.9 µM.
Compound `C[C@H]1[C@H](C)CC[C@]2(C(=O)O)CC[C@]3(C)C(=CC[C@@H]4[C@@]5(C)CC[C@H](O)C(C)(C)[C@@H]5CC[C@]43C)[C@H]12` has an EC50 of 1.79 µM.
`COc1cc(C(=O)N/N=C/c2ccc(OC(=O)c3ccccc3Cl)c(OC)c2)ccc1O` was tested, and the EC50 was 5.64 µM.
For `CC(C)Cc1nnc(NC(=O)CCC(=O)N2CCN(c3ccccc3)CC2)s1`, the EC50 was > 15 µM (inactive).
For `O=C(Nc1nc(N2C(=O)c3ccccc3C2=O)n(-c2ccccc2)n1)c1ccc(Cl)cc1`, the EC50 was 10.3 µM.
Work on `CC(NS(=O)(=O)OCC(Cl)(Cl)Cl)c1ccc(C(C)(C)C)cc1` (stereo unspecified) yielded an EC50 of 4.64 µM.
Compound `CC(C)C[C@H](NC(=O)c1[nH]cnc1C(=O)N[C@@H](C)C(=O)OC(C)(C)C)C(=O)OCc1ccccc1` has an EC50 of 7.06 µM.
With `Fc1ccc(-c2cc(C(F)(F)F)nc(N3CCCCC3)n2)cc1` the EC50 was 4.68 µM.
In the case of `COc1ccc(C(=O)NCC(=O)OCC(=O)N2N=C(c3ccc(Cl)cc3)CC2c2ccco2)cc1OC` (stereo unspecified), the EC50 is reported as 15.6 µM.
`Cc1nnc(SCC2=C(C(=O)O)N3C(=O)C(NC(=O)c4cc(F)c(F)cc4Cl)C3SC2)s1` (stereo unspecified) gave an EC50 of 0.535 µM.
With `C=CC1=C(C(=O)O)N2C(=O)C(NC(=O)Cc3ccccc3)C2SC1` (stereo unspecified) the EC50 was 0.13 µM.
With `O=C(Nc1nccs1)c1sc2ccccc2c1Cl` the EC50 was > 15 µM (inactive).
Work on `OC(COCC(F)(F)C(F)(F)C(F)(F)C(F)F)Cn1c2ccc(Cl)cc2c2cc(Cl)ccc21` (stereo unspecified) yielded an EC50 of 2.16 µM.
Compound `CC(C)C(Sc1nc(-c2ccccc2)cc(-c2ccccc2)c1C#N)C(=O)O` (stereo unspecified) has an EC50 of 2.04 µM.
Compound `c1ccc2sc(SCSc3nc4ccccc4s3)nc2c1` has an EC50 of 2.86 µM.
With `Cc1ccc(CNC(=S)Nc2ccc(NS(=O)(=O)c3ccc(C)cc3)cc2)cc1` the EC50 was 8.28 µM.
Compound `COc1cccc(-c2coc3c(C)c4oc(=O)c(CCC(=O)O)c(C)c4cc23)c1` has an EC50 of 3.73 µM.
`CCOc1cccc(/C=N/NC(=O)c2ccc3c(c2)OCCO3)c1O` was tested, and the EC50 was 1.27 µM.
`CCn1c(O)c(/C=N/N=C/c2ccccc2)c2ccc(C3=NNC(=O)CC3)cc21` showed an EC50 of 4.3 µM.
Work on `Cc1ccccc1-n1nc(C(=O)c2cccs2)cc(-c2nc3ccccc3[nH]2)c1=N` yielded an EC50 of 1.59 µM.
`Cc1nn(-c2ccccc2)c(Cl)c1/C=C1\SC(=S)N(CCCCCC(=O)O)C1=O` gave an EC50 of 3.04 µM.
In the case of `CCCCOC(=O)c1ccc(NC(=S)N2CCN(c3ncc4c(=O)c(C(=O)O)cn(CC)c4n3)CC2)cc1`, the EC50 is reported as 2.04 µM.
In the case of `COc1ccc(C(=O)CSc2[nH]c(=O)cc(C(F)(F)F)c2C#N)cc1`, the EC50 is reported as 7.06 µM.
`COc1cc(OC)cc(C(=O)NC(=S)NNC(=O)Cc2cccs2)c1` gave an EC50 of 0.716 µM.
Compound `CCCCC[n+]1ccn(C2=C([O-])c3ccccc3C(=O)/C2=N\S(=O)(=O)c2ccc(Br)cc2)c1` has an EC50 of 2.87 µM.
`Cc1[nH]nc(Nc2ccc(C(C)C)cc2)c1[N+](=O)[O-]` showed an EC50 of 13.8 µM.
With `COCc1cc(=O)[nH]c(Nc2nc3ccc(C)cc3o2)n1` the EC50 was 2.27 µM.
`O=c1cc(C(F)(F)F)[nH]c2c(C(F)(F)F)cccc12` showed an EC50 of 2.34 µM.
`COc1ccc(C)cc1N=Nc1ccc(O)c2ncccc12` showed an EC50 of 0.168 µM.
Work on `CCCn1c(=O)c(C(=O)N/N=C/c2ccc(F)cc2)c(O)c2ccccc21` yielded an EC50 of 3.19 µM.
Work on `COC(=O)c1cc(-c2ccc(OC)cc2F)nc2nc(SC)[nH]c(=O)c12` yielded an EC50 of 2.57 µM.
In the case of `CCC(=O)NC(c1ccc(OC)c(OC)c1)c1cc(Cl)c2cccnc2c1O` (stereo unspecified), the EC50 is reported as 5 µM.
`CCCN(CCC)c1nc(-c2ccccn2)nc2ccccc12` was tested, and the EC50 was 0.074 µM.
For `O=[N+]([O-])c1ccc(N=Nc2ccc(O)cc2O)cc1`, the EC50 was 2.94 µM.
Work on `COC(=O)c1ccc(N2CCC(c3cc(-c4ccc(OC)cc4)n[nH]3)CC2)c([N+](=O)[O-])c1` yielded an EC50 of 2.15 µM.
With `O=C(COc1ccccc1-c1ccccc1)N/N=C/c1ccc2ccccc2c1` the EC50 was 6.47 µM.
For `CC(C)Cn1c(=O)c(C(=O)Nc2ccccc2S(N)(=O)=O)c(O)c2ccccc21`, the EC50 was 8.58 µM.
`CCOC(=O)[C@@H]1[C@H]2COc3ccccc3[C@H]2N2C(=O)N(c3ccc(C(F)(F)F)cc3)C(=O)[C@]12C` gave an EC50 of 6.08 µM.
`COc1ccc(-c2oc(NC(=O)CCl)c(C#N)c2-c2ccc(OC)cc2)cc1` gave an EC50 of 3.11 µM.
For `O=[N+]([O-])c1ccc(O)c(Nc2ncnc3ccc(Br)cc23)c1`, the EC50 was 3.32 µM.
`O=C1C=C(N2CCCCC2)c2ccccc2C1=O` was tested, and the EC50 was 3.67 µM.
Work on `COc1ccc(-c2nn(-c3ccccc3)cc2/C=C/C(=O)N2CCN(c3ccccn3)CC2)cc1` yielded an EC50 of 4.69 µM.
`CCCCCCCC(=O)NNC(=O)c1c(O)c2ccccc2n(CCC)c1=O` was tested, and the EC50 was 1.1 µM.
`NC(=O)c1cc(C(=O)Cc2ccccc2)c[nH]1` was tested, and the EC50 was 2.23 µM.
With `Oc1ccccc1C1=NN(c2ccccc2)C(c2ccccc2)C1` (stereo unspecified) the EC50 was 2.76 µM.
In the case of `CC1Cc2ccccc2N1C(=S)NC(=O)c1ccc(Cl)cc1Cl` (stereo unspecified), the EC50 is reported as 4.26 µM.
For `COCCCn1c(N)c(C(=O)Nc2ccccc2)c2nc3ccccc3nc21`, the EC50 was 11.8 µM.
`CC(C)Oc1ccc(C(=O)Nc2nc3ccccc3[nH]2)cc1` was tested, and the EC50 was 1.41 µM.
